In US11708366B2, “Heteroaryl substituted spiropiperidinyl derivatives and pharmaceutical uses thereof” (Novartis AG, priority 2020, dated 2023) one finds IC50 data, which are given here for 22 compounds.

The target of one assay is LTC4S (Homo sapiens (Human), UniProt Q16873). Description: Human whole blood HTRF assay (LTC4 release after calcium ionophore A23187). The class given is cell-based. As to conditions: human whole blood HTRF IC50, human whole blood diluted 1:3, 4 h incubation, calcium ionophore A23187 stimulation, LTC4 by HTRF. The protocol:
B. Human Whole Blood HTRF Assay
LTC4 synthase catalyzes the conversion of Leukotriene A4 (LTA4) to Leukotriene C4 (LTC4) in the presence of reduced glutathione (GSH) as a co-substrate. For testing the inhibition of LTC4S, compounds are prepared for either eight-point or sixteen-point dose response studies in 384-well Labcyte low dead volume (LDV) plates. For eight-point dose response studies, compounds are diluted 1:5 starting at 1 μM concentration in 90% DMSO. […] Compounds are studied in duplicates. Ten wells are filled with 90% DMSO which correspond to the stimulated and unstimulated control wells. […] The morning of the assay, whole blood is collected from three human donors. Donors must be non-smokers and must not have taken NSAIDs within the 48 hours prior to blood collection. The amount of blood collected per donor depends on the amount of compounds to be tested and the dose response format in which they are to be studied (about 8 mL of whole blood for either 22 compounds in 8-point dose response format or 11 compounds in 16-point dose response format). […] 50 μL of diluted blood are then dispensed into each assay plate well with pre-dispensed compounds and DMSO for the stimulated and unstimulated controls using a Thermo Scientific™ Multidrop™ Combi reagent dispenser, and incubated at 37° C. for 4 hours. Calcium ionophore A23187 is used to induce a rapid increase in intracellular levels of Ca^2+. The Ca^2+ functions as a universal second messenger in various immune cells, such as T cells, B cells and mast cells, and is used to induce degranulation and release of eicosanoids, including LTC4, by cells contained in the whole blood samples. […] All but the unstimulated control wells are subsequently stimulated by dispensing 1 μL of the 0.5 mg/mL calcium ionophore suspension using the Thermo Scientific™ Multidrop™ Combi reagent dispenser. Plates are incubated for 15 minutes at 37° C. Plates are then centrifuged at 300 g for 10 minutes at room temperature to pellet blood cells and stop the reaction. […] Plates are sealed and stored at −80° C.
In order to measure the amount of LTC4 released by cells in the human blood samples during calcium ionophore stimulation, supernatants are analyzed using the Cisbio LTC4 homogeneous time-resolved FRET (HTRF) kit (Cisbio #64LC4PEH). […] Ten serially diluted standard curve solutions are also dispensed in duplicate into each plate as instructed in the protocol. Blank controls and cryptate control wells are also prepared. Then, 5 μL of anti-LTC4-d2 working solution are dispensed into all the wells, but the cryptate control wells. Subsequently, 5 μL of anti-LTC4-Eu3+ cryptate working solution are dispensed into all the wells. Plates are then covered with a lid and incubated at room temperature for one hour with gentle orbital shaking (˜450 rpm). […] HTRF ratios are calculated for each well by dividing the 665 nm intensity by the 620 nm intensity, and multiplying the resulting ratio by 10,000. LTC4 standard curves are interpolated for each plate and used to convert the HTRF ratio readouts into the amount of LTC4 present in each well (in ng/mL). Parametric curve fitting is used to obtain inhibition curves and IC50 values.
With `Cn1nc(-n2cc(C(F)(F)F)cn2)cc(N2CCC3(CCCC(=O)N3c3ccc(F)c(F)c3)CC2)c1=O` [Example 14, 1-(3,4-difluorophenyl)-9-(2-methyl-3-oxo-6-(4-(trifluoromethyl)-1H-pyrazol-1-yl)-2,3-dihydropyridazin-4-yl)-1,9-diazaspiro[5.5]undecane-2-one], the half-inhibitory concentration (IC50) stood at 1 nM.

As for `O=C1CC(F)CC2(CCN(c3cc(OCC(F)(F)F)ncn3)CC2)N1c1ccc(F)c(F)c1` (stereo not shown) [Example 119, 1-(3,4-difluorophenyl)-4-fluoro-9-(6-(2,2,2-trifluoroethoxy)pyrimidin-4-yl)-1,9-diazaspiro[5.5]undecan-2-one], the half-inhibitory concentration (IC50) was 29 nM.

Consider `O=C1CCCC2(CCN(c3cc(OC4CCOCC4)nn(Cc4ccccc4)c3=O)CC2)N1c1ccc(F)c(F)c1` [Example 15a, 9-(2-benzyl-3-oxo-6-((tetrahydro-2H-pyran-4-yl)oxy)-2,3-dihydropyridazin-4-yl)-1-(3,4-difluorophenyl)-1,9-diazaspiro[5.5]undecan-2-one], for which the IC50 was 1 nM.

The same assay, now with this note: human whole blood diluted 1:3, 4 h incubation, calcium ionophore A23187 stimulation, LTC4 by HTRF; read-out: human whole blood HTRF IC50.
Turning to `C[C@@H](Oc1cc(N2CCC3(CCCC(=O)N3c3ccc(F)c(F)c3)CC2)nc(CO)n1)C(F)(F)F` (single isomer, unassigned) [Example 110b, (R)-1-(3,4-difluorophenyl)-9-(2-(hydroxymethyl)-6-((1,1,1-trifluoropropan-2-yl)oxy)pyrimidin-4-yl)-1,9-diazaspiro[5.5]undecan-2-one or (S)-1-(3,4-difluorophenyl)-9-(2-(hydroxymethyl)-6-((1,1,1-trifluoropropan-2-yl)oxy)pyrimidin-4-yl)-1,9-diazaspiro[5.5]undecan-2-one], the IC50 was found to be 5 nM.

Consider `Nc1nc(N2CCC3(CCCC(=O)N3c3ccc(F)c(F)c3)CC2)cc(C(F)(F)F)n1` [Example 76, 9-(2-amino-6-(trifluoromethyl)pyrimidin-4-yl)-1-(3,4-difluorophenyl)-1,9-diazaspiro[5.5]undecan-2-one], for which the IC50 amounted to 57 nM.

For `CCCOc1ccnc(N2CCC3(CCCC(=O)N3c3ccc(F)c(F)c3)CC2)n1` [Example 85, 1-(3,4-difluorophenyl)-9-(4-propoxypyrimidin-2-yl)-1,9-diazaspiro[5.5]undecan-2-one], the half-maximal inhibitory concentration (IC50) amounted to 430 nM.

For the compound `O=C1OCCC2(CCN(c3cc(-n4cc(C(F)(F)F)cn4)nc(CO)n3)CC2)N1c1ccc(F)c(F)c1` [Example 114, 1-(3,4-difluorophenyl)-9-(2-(hydroxymethyl)-6-(4-(trifluoromethyl)-1H-pyrazol-1-yl)pyrimidin-4-yl)-3-oxa-1,9-diazaspiro[5.5]undecan-2-one], the IC50 amounted to 7 nM.

As for `O=C1CCCC2(CCN(c3cc(O[C@@H]4CCOC4)nc(Cl)n3)CC2)N1c1ccc(F)c(F)c1` [Example 70, (R)-9-(2-chloro-6-((tetrahydrofuran-3-yl)oxy)pyrimidin-4-yl)-1-(3,4-difluorophenyl)-1,9-diazaspiro[5.5]undecan-2-one], the IC50 turned out to be 110 nM.

Take `O=C1CCCC2(CCN(c3cc(N4CC5(CCC5)C4)nn(Cc4ccccc4)c3=O)CC2)N1c1ccc(F)c(F)c1` [Example 10, 9-(2-benzyl-3-oxo-6-(2-azaspiro[3.3]heptan-2-yl)-2,3-dihydropyridazin-4-yl)-1-(3,4-difluorophenyl)-1,9-diazaspiro[5.5]undecan-2-one]: the IC50 worked out at 5 nM.

Regarding `Nc1nc(N2CCC3(CCCC(=O)N3c3ccc(F)c(F)c3)CC2)cc(C(F)(F)C(F)(F)F)n1` [Example 77, 9-(2-amino-6-(perfluoroethyl)pyrimidin-4-yl)-1-(3,4-difluorophenyl)-1,9-diazaspiro[5.5]undecane-2-one], the IC50 was 31 nM.

Regarding `Nc1nc(OC2CCOCC2)cc(N2CCC3(CCCC(=O)N3c3ccc(F)c(F)c3)CC2)n1` [Example 101, 9-(2-amino-6-((tetrahydro-2H-pyran-4-yl)oxy)pyrimidin-4-yl)-1-(3,4-difluorophenyl)-1,9-diazaspiro[5.5]undecan-2-one], the half-inhibitory concentration (IC50) was found to be 5 nM.

As for `O=C1CCCC2(CCN(c3cnnc(N4CCC(O)(C(F)(F)F)CC4)c3)CC2)N1c1ccc(F)c(F)c1` [Example 42, 1-(3,4-difluorophenyl)-9-(6-(4-hydroxy-4-(trifluoromethyl)piperidin-1-yl)pyridazin-4-yl)-1,9-diazaspiro[5.5]undecan-2-one], the IC50 was determined as 410 nM.

For the compound `O=C1CC(F)CC2(CCN(c3cc(OC4CCOCC4)ncn3)CC2)N1c1ccc(F)c(F)c1` (racemic) [Example 118, rac-1-(3,4-difluorophenyl)-4-fluoro-9-(6-((tetrahydro-2H-pyran-4-yl)oxy)pyrimidin-4-yl)-1,9-diazaspiro[5.5]undecan-2-one], the IC50 is 8 nM.

On to `Nc1nc(OC2CCOCC2)cc(N2CCC3(CC2)C[C@H](F)CC(=O)N3c2ccc(F)c(F)c2)n1` (single isomer, unassigned) [Example 116a, (R)-9-(2-amino-6-((tetrahydro-2H-pyran-4-yl)oxy)pyrimidin-4-yl)-1-(3,4-difluorophenyl)-4-fluoro-1,9-diazaspiro[5.5]undecan-2-one, or (S)-9-(2-amino-6-((tetrahydro-2H-pyran-4-yl)oxy)pyrimidin-4-yl)-1-(3,4-difluorophenyl)-4-fluoro-1,9-diazaspiro[5.5]undecan-2-one], for which the IC50 was 13 nM.

Take `Nc1cc(N2CCC3(CCCC(=O)N3c3ccc(F)c(F)c3)CC2)nc(-c2ccccn2)n1` [Example 63, 9-(6-amino-2-(pyridin-2-yl)pyrimidin-4-yl)-1-(3,4-difluorophenyl)-1,9-diazaspiro[5.5]undecan-2-one]: the IC50 came to 430 nM.

Turning to `Nc1nc(OCC(F)(F)F)cc(N2CCC3(CCCC(=O)N3c3ccc(F)c(F)c3)CC2)n1` [Example 91, 9-(2-amino-6-(2,2,2-trifluoroethoxy)pyrimidin-4-yl)-1-(3,4-difluorophenyl)-1,9-diazaspiro[5.5]undecan-2-one], the IC50 was 3 nM.

For the compound `CCOC(=O)c1nc(O[C@@H]2COC[C@H]2F)cc(N2CCC3(CCCC(=O)N3c3ccc(F)c(F)c3)CC2)n1` (racemic) [Example 111, rac ethyl 4-(1-(3,4-difluorophenyl)-2-oxo-1,9-diazaspiro[5.5]undecane-9-yl)-6-(((3S,4S)-4-fluorotetrahydrofuran-3-yl)oxy)pyrimidine-2-carboxylate], the IC50 came out at 17 nM.

Turning to `O=C1CCCC2(CCN(c3cc(-n4cccn4)nc(N4CCOCC4)n3)CC2)N1c1ccc(F)c(F)c1` [Example 52, 1-(3,4-difluorophenyl)-9-(2-morpholino-6-(1H-pyrazol-1-yl)pyrimidin-4-yl)-1,9-diazaspiro[5.5]undecan-2-one], the IC50 came out at 29 nM.

For the compound `Nc1nc(C2=CCC(F)(F)CC2)cc(N2CCC3(CCCC(=O)N3c3ccc(F)c(F)c3)CC2)n1` [Example 74, 9-(2-amino-6-(4,4-difluorocyclohex-1-en-1-yl)pyrimidin-4-yl)-1-(3,4-difluorophenyl)-1,9-diazaspiro[5.5]undecan-2-one], the half-maximal inhibitory concentration (IC50) turned out to be 4 nM.

With `Nc1nc(OC2CCOCC2)cc(N2CCC3(CC2)C[C@H](F)CC(=O)N3c2ccc(F)c(F)c2)n1` (single isomer, unassigned) [Example 116b, (S)-9-(2-amino-6-((tetrahydro-2H-pyran-4-yl)oxy)pyrimidin-4-yl)-1-(3,4-difluorophenyl)-4-fluoro-1,9-diazaspiro[5.5]undecan-2-one, or (R)-9-(2-amino-6-((tetrahydro-2H-pyran-4-yl)oxy)pyrimidin-4-yl)-1-(3,4-difluorophenyl)-4-fluoro-1,9-diazaspiro[5.5]undecan-2-one], the IC50 worked out at 33 nM.

Consider `Nc1nc(N2CCC3(CCCC(=O)N3c3ccc(F)c(F)c3)CC2)nc(-n2cc(F)cn2)n1` [Example 60, 9-(4-amino-6-(4-fluoro-1H-pyrazol-1-yl)-1,3,5-triazin-2-yl)-1-(3,4-difllorophenyl)-1,9-diazaspiro[5.5]undecan-2-one], for which the IC50 came out at 680 nM.

For the compound `CC(C)(O)c1nc(N2CCC3(CCCC(=O)N3c3ccc(F)c(F)c3)CC2)cc(-n2cc(C(F)(F)F)cn2)n1` [Example 65, 1-(3,4-difluorophenyl)-9-(2-(2-hydroxypropan-2-yl)-6-(4-(trifluoromethyl)-1H-pyrazol-1-yl)pyrimidin-4-yl)1,9-diazaspiro[5.5]undecane-2-one], the IC50 stood at 1 nM.
